These results are taken from patent US12084430B2, “Tricyclic urea compounds as JAK2 V617F inhibitors” (Incyte Corporation, priority 2022, dated 2024).

Structures are written as SMILES. pIC50: −log10 of the molar value.

Experiment [1] deals with KIT (Homo sapiens, UniProt P10721). Briefly: KIT enzymatic assay. It is filed as biochemical. The following applies: 1 mM ATP. A digest of the protocol:
(§1)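 0.12 nM KIT with 1 mM ATP and 500 nM biotinylated TK substrate in 50 mM HEPES pH 7.0, 10 mM MgCl2, 1 mM DTT, 0.1 mM orthovanadate, 0.5% DMSO; 60 min at room temperature. TR-FRET 665/620 nm ratio; IC50 fitted from percent control activity versus log concentration.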

In experiment [2] the test system is KIT. Briefly: KIT enzymatic assay. It is filed as biochemical. The method in brief:
as §1

The subject of experiment [3] is pSTAT5 signaling in SET-2 cells in whole blood. Briefly: pSTAT5 SET-2 whole blood MSD assay. It is filed as cell-based. The settings on record: Homo sapiens, pSTAT5, 2 hour, read-out: SET2 WB IC50. Here is the method:
Example F. pSTAT5 SET-2 Whole Blood MSD Assay
SET-2 cells shipped from ABS, RPMI1640 medium, Fetal Bovine Serum from Gibco, Phospho-STAT5a,b Whole Cell Lysate Kit from Mesoscale, Retronectin (Recombinant Human Fibronectin Fragment) from TaKaRa, 96 well cell culture plate flat bottom from Corning, lysis buffer from Cell Signaling Technology, and sterile PBS from Gibco. Whole Blood from by BioIVT.
SET-2 cells were cultured in RPMI media with 20% FBS at 37° C. humidified incubator supplied with 5% CO2. On the day of the assay, 40 uL per well of diluted retronectin working solution was added to sterile 96-well clear flat bottom tissue culture plates (1:200 dilution of retronectin in sterile PBS) and incubated at 37 C for 1 hour. After 1 hour, the retronectin working solution was aspirated and SET-2 cells were seeded at 100,000/well in RPMI+20% FBS. Cells were incubated overnight at 37° C. and 5% CO2. The next day, the medium was removed and 40 μL of diluted compounds in serum-free RPMI and whole blood was added to the cells for a 2 hour incubation at 37° C. and 5% CO2. The compound starting concentration is 20 μM and 2.5 fold serial diluted down to 0.21 nM. The whole blood and compound mixture was then aspirated off using the BlueCat plate washer and washed 1× with PBS. Cells were lysed by adding 40 μL of 3× complete lysis buffer and shaken at room temperature for 45-60 minutes (complete lysis buffer consists of Cell Signaling Technology lysis buffer diluted to 3× and supplemented with Mesoscale's protease inhibitor, phosphatase I inhibitor, and phosphatase II inhibitor). The pSTAT5 MSD plates were blocked by adding 150 μL of Blocker A solution per well to the MSD plates and incubated at room temperature with shaking at 400 rpm for one hour or longer. After blocking, plates were washed 3× with 300 μL/well of IX Tris Wash Buffer. After lysis, added 25 μL per well of lysed sample was added to MSD plate and incubated with shaking at 4° C. wrapped in foil overnight. The next day, plates were washed again and 25 μL/well of diluted 1× Detection Antibody Solution, wrapped in foil, and incubated at room temperature with shaking at 400 rpm for 1 hour. Plates were then washed again and lastly, 150 μL/well of 1× Read Buffer T was added to all wells. Plates were analyzed on MSD Discovery within 5 minutes. […] Data analysis was performed in GraphPad Prism using a 4-parameter fit and data was reported as Average±SD.

Experiment [4] concerns FLT3. Briefly: FLT3 enzymatic assay. The format is biochemical. A digest of the protocol: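 Kinase reaction at room temperature in HEPES 50 mM pH 7.0 with 10 mM MgCl2, 1 mM DTT: 0.011 nM FLT3, 1 mM ATP, 500 nM biotinylated TK substrate, 0.5% DMSO. After 60 min, HTRF read as 665/620 nm ratio; IC50 from fit of percent control activity versus log concentration.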

KIT (Homo sapiens, UniProt P10721), sequence (P10721 26-976, species assumed): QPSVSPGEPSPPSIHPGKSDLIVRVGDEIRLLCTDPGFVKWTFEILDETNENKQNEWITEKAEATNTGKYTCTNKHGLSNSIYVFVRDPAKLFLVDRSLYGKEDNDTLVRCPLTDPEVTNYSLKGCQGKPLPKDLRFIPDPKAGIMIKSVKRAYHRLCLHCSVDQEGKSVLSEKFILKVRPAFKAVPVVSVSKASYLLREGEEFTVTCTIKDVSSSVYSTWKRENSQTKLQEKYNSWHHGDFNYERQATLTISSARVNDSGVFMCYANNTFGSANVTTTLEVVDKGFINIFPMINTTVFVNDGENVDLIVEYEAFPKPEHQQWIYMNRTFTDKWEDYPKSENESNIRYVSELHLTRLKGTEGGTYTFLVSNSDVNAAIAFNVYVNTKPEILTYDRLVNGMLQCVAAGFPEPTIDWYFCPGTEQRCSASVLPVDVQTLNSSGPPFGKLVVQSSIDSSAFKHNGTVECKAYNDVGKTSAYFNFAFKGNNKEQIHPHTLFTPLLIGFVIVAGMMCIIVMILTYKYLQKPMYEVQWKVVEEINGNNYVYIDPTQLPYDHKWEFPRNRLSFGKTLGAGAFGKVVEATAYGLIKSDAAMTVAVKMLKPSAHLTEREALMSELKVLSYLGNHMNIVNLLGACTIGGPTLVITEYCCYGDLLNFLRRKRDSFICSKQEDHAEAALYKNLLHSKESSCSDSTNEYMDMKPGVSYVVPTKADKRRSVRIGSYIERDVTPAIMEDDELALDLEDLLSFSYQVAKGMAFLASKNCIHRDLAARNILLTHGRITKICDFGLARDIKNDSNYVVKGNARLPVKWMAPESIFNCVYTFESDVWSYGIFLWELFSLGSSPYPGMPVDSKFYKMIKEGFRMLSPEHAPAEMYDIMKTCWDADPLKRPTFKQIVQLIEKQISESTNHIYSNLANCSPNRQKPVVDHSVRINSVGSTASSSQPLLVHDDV

As usually defined, the pIC50 is the IC50 on a negative log10 scale, so that one unit is a factor of ten. For the compound `[2H]C([2H])([2H])n1cc(-c2[nH]c3ncc4c(c3c2-c2ccc3c(c2)COC3(C)C)n([C@@H]2CC[C@@H](NC(=O)OC)C2)c(=O)n4C([2H])([2H])[2H])c(F)n1` [Example 8, Methyl ((1R,3R)-3-(8-(1,1-dimethyl-1,3-dihydroisobenzofuran-5-yl)-7-(3-fluoro-1-(methyl-d3)-1H-pyrazol-4-yl)-3-(methyl-d3)-2-oxo-3,6-dihydroimidazo[4,5-d]pyrrolo[2,3-b]pyridin-1(2H)-yl)cyclopentyl)carbamate], the pIC50 in experiment [1] was 5.60 to 5.90; in experiment [3], not below 5.60. Also, in experiment [2], the “Selectivity KIT/JH2 V617F” value is on record as “****** (selectivity of >12500-fold)”. In experiment [4], the “Selectivity FLT3/JH2 V617F” value is “****** (selectivity of >12500-fold)”.

As to `[2H]C([2H])([2H])n1cc(-c2[nH]c3ncc4c(c3c2-c2ccc3c(cnn3CC(F)F)c2)n([C@@H]2CC[C@@H](NC(=O)OC)C2)c(=O)n4C([2H])([2H])[2H])c(F)n1` [Example 14, Methyl ((1R,3R)-3-(8-(1-(2,2-difluoroethyl)-1H-indazol-5-yl)-7-(3-fluoro-1-(methyl-d3)-1H-pyrazol-4-yl)-3-(methyl-d3)-2-oxo-3,6-dihydroimidazo[4,5-d]pyrrolo[2,3-b]pyridin-1(2H)-yl)cyclopentyl)carbamate], the pIC50 was 5.90 to 6.60 in experiment [1] and not below 5.60 in experiment [3]. Further, the “Selectivity KIT/JH2 V617F” value in experiment [2] is “***** (selectivity of >5000-fold to ≤12500-fold)”. For the same compound, the “Selectivity FLT3/JH2 V617F” value in experiment [4] is given as “****** (selectivity of >12500-fold)”.

For `[2H]C([2H])([2H])n1ncc2cc(-c3c(-c4cn(C([2H])(C([2H])([2H])[2H])C([2H])([2H])[2H])nc4F)[nH]c4ncc5c(c34)n([C@@H]3CC[C@@H](NC(=O)OC)C3)c(=O)n5C([2H])([2H])[2H])ccc21` [Example 21, Methyl ((1R,3R)-3-(7-(3-fluoro-1-(propan-2-yl-d7)-1H-pyrazol-4-yl)-3-(methyl-d3)-8-(1-(methyl-d3)-1H-indazol-5-yl)-2-oxo-3,6-dihydroimidazo[4,5-d]pyrrolo[2,3-b]pyridin-1(2H)-yl)cyclopentyl)carbamate], the pIC50 in experiment [1] was 5.60 to 5.90; in experiment [3], not below 5.60. In experiment [2], the “Selectivity KIT/JH2 V617F” value was “****** (selectivity of >12500-fold)”. The “Selectivity FLT3/JH2 V617F” value in experiment [4] is “****** (selectivity of >12500-fold)”.

Regarding `COC(=O)N[C@@H]1CC[C@@H](n2c(=O)n(C)c3cnc4[nH]c(-c5cn(C)nc5OC)c(-c5ccc(OC)c(F)c5)c4c32)C1` [Example 4, Methyl ((1R,3R)-3-(8-(3-fluoro-4-methoxyphenyl)-7-(3-methoxy-1-methyl-1H-pyrazol-4-yl)-3-methyl-2-oxo-3,6-dihydroimidazo[4,5-d]pyrrolo[2,3-b]pyridin-1(2H)-yl)cyclopentyl)carbamate], the negative logarithm of the IC50 (pIC50) in experiment [1] is less than 5.60; in experiment [3], not below 5.60. Moreover, the “Selectivity KIT/JH2 V617F” value in experiment [2] is “****** (selectivity of >12500-fold)”. Moreover, in experiment [4], the “Selectivity FLT3/JH2 V617F” value is given as “***** (selectivity of >5000-fold to ≤12500-fold)”.

Take `[2H]C([2H])([2H])n1c(=O)n([C@@H]2CC[C@@H](NC(=O)OC)C2)c2c3c(-c4ccc5c(c4)COC5(C)C)c(-c4cn(CC(F)F)nc4F)[nH]c3ncc21` [Example 12, Methyl ((1R,3R)-3-(7-(1-(2,2-difluoroethyl)-3-fluoro-1H-pyrazol-4-yl)-8-(1,1-dimethyl-1,3-dihydroisobenzofuran-5-yl)-3-(methyl-d3)-2-oxo-3,6-dihydroimidazo[4,5-d]pyrrolo[2,3-b]pyridin-1(2H)-yl)cyclopentyl)carbamate]: the results for the negative-log IC50 (pIC50) in experiment [1] and in experiment [3] were less than 5.60 and not below 5.60, respectively. For the same compound, the “Selectivity KIT/JH2 V617F” value in experiment [2] is on record as “****** (selectivity of >12500-fold)”. The “Selectivity FLT3/JH2 V617F” value in experiment [4] was “****** (selectivity of >12500-fold)”.
